Data reported in US20060252807A1, “Novel ortho-terphenyl inhibitors of p38 kinase and methods of treating inflammatory disorders” (Kalypsys, Inc., priority 2005, published 2006).

molecular target: T1, active p38 alpha enzyme (Upstate Biotechnology) (Homo sapiens, UniProt Q16539); test: p38α biochemical assay (ATP turnover, luminescent detection, Cambrex PKlight); conditions: p38α biochemical assay, Table 1 Biological Activity
T1 construct: purchased Upstate Biotechnology
How it was run: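 Luminescent PKlight readout of total ATP consumption follows a 2 h, 30C kinase reaction. Enzyme and MapkapK2 substrate run with 1.4 uM ATP (final) in buffer containing Mg2+, Ca2+, chelators, glycerol, reducing agent and BSA; test compounds added by pintool from DMSO.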

T1 sequence (Q16539 whole entry): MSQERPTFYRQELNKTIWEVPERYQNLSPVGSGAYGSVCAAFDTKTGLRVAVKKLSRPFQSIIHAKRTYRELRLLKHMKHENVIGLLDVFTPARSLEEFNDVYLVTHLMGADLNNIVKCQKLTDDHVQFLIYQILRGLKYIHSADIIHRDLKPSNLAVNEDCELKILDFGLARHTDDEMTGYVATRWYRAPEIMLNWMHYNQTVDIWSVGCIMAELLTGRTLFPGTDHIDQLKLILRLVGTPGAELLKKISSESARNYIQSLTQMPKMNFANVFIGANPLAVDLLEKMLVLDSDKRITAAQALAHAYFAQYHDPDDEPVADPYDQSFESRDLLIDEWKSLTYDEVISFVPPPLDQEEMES

SMILES | IC50 [µM]
CC(C)NC(=O)c1csc(-c2oc(CN3CCN(C(=O)c4ccc(-c5ccc(O)cc5)cc4)CC3)nc2-c2ccc(F)cc2)n1 [Example 528] | ≤ 1
Cc1cc(C(=O)N2CCN(Cc3nc(-c4ccc(F)cc4)c(-c4nc(C(=O)NC(C)C)cs4)o3)CC2)ccc1Br [Example 529] | > 1
Cc1ccc(C(=O)N2CCN(Cc3nc(-c4ccc(F)cc4)c(-c4nc(C(=O)NC(C)C)cs4)o3)CC2)cc1Br [Example 530] | > 1
CC(C)NC(=O)c1csc(-c2oc(CN3CCN(C(=O)Cc4ccc(Br)cc4)CC3)nc2-c2ccc(F)cc2)n1 [Example 531] | ≤ 1
CC(C)NC(=O)c1csc(-c2oc(CN3CCN(C(=O)C4CCCN4C(=O)OC(C)(C)C)CC3)nc2-c2ccc(F)cc2)n1 (stereo not drawn) [Example 532] | ≤ 1
CC(C)NC(=O)c1csc(-c2oc(CN3CCN(C(=O)/C=C/c4ccccc4C(F)(F)F)CC3)nc2-c2ccc(F)cc2)n1 [Example 533] | > 1
CCOc1ccc2ccccc2c1C(=O)N1CCN(Cc2nc(-c3ccc(F)cc3)c(-c3nc(C(=O)NC(C)C)cs3)o2)CC1 [Example 534] | ≤ 1
CC(C)NC(=O)c1csc(-c2oc(CN3CCN(C(=O)C(NC(=O)OC(C)(C)C)C(C)C)CC3)nc2-c2ccc(F)cc2)n1 (stereo not drawn) [Example 535] | > 1
CC(C)NC(=O)c1csc(-c2oc(CN3CCN(C(=O)C(NC(=O)OC(C)(C)C)C(C)C)CC3)nc2-c2ccc(F)cc2)n1 (stereo not drawn) [Example 536] | > 1
CC(C)NC(=O)c1csc(-c2oc(CN3CCN(C(=O)CCc4cccc(C(F)(F)F)c4)CC3)nc2-c2ccc(F)cc2)n1 [Example 537] | > 1
CC1=NN(c2ccc(C(=O)N3CCN(Cc4nc(-c5ccc(F)cc5)c(-c5nc(C(=O)NC(C)C)cs5)o4)CC3)cc2)C(=O)C1 [Example 538] | > 1
Cc1nc(Br)sc1C(=O)N1CCN(Cc2nc(-c3ccc(F)cc3)c(-c3nc(C(=O)NC(C)C)cs3)o2)CC1 [Example 539] | > 1
CC(C)NC(=O)c1csc(-c2oc(CN3CCN(C(=O)c4c5ccccc5cc5ccccc45)CC3)nc2-c2ccc(F)cc2)n1 [Example 540] | > 1
CC(C)NC(=O)c1csc(-c2oc(CN3CCN(C(=O)c4cc(C(C)C)cc(C(C)C)c4O)CC3)nc2-c2ccc(F)cc2)n1 [Example 541] | > 1
CC(=O)NC(Cc1ccc(O)cc1)C(=O)N1CCN(Cc2nc(-c3ccc(F)cc3)c(-c3nc(C(=O)NC(C)C)cs3)o2)CC1 (stereo not drawn) [Example 542] | > 1
CC(C)NC(=O)c1csc(-c2oc(CN3CCN(C(=O)c4c(Cl)cc(Cl)cc4Cl)CC3)nc2-c2ccc(F)cc2)n1 [Example 543] | > 1
COc1cc(C(=O)N2CCN(Cc3nc(-c4ccc(F)cc4)c(-c4nc(C(=O)NC(C)C)cs4)o3)CC2)c([N+](=O)[O-])cc1OC [Example 544] | > 1
CC(C)NC(=O)c1csc(-c2oc(CN3CCN(C(=O)c4ccc(OCc5ccccc5)cc4)CC3)nc2-c2ccc(F)cc2)n1 [Example 545] | > 1

Continued, values first:

IC50 [µM] | SMILES
> 1 | CC(C)NC(=O)c1csc(-c2oc(CN3CCN(C(=O)CCc4ccccc4Br)CC3)nc2-c2ccc(F)cc2)n1 [Example 546]
> 1 | CC(C)NC(=O)c1csc(-c2oc(CN3CCN(C(=O)CCc4cccc(Br)c4)CC3)nc2-c2ccc(F)cc2)n1 [Example 547]
> 1 | CC(C)NC(=O)c1csc(-c2oc(CN3CCN(C(=O)C4CCCCN4C(=O)OC(C)(C)C)CC3)nc2-c2ccc(F)cc2)n1 (stereo not drawn) [Example 548]
> 1 | CC(C)NC(=O)c1csc(-c2oc(CN3CCN(C(=O)c4ccc(Oc5cccc(O)c5)cc4)CC3)nc2-c2ccc(F)cc2)n1 [Example 549]
> 1 | COc1ccc2cc(C(C)C(=O)N3CCN(Cc4nc(-c5ccc(F)cc5)c(-c5nc(C(=O)NC(C)C)cs5)o4)CC3)ccc2c1 (stereo not drawn) [Example 550]
> 1 | CC(C)NC(=O)c1csc(-c2oc(CN3CCN(C(=O)C4CN(C(=O)OC(C)(C)C)CCN4)CC3)nc2-c2ccc(F)cc2)n1 (stereo not drawn) [Example 551]
> 1 | CC(C)NC(=O)c1csc(-c2oc(CN3CCN(C(=O)C4CN(C(=O)OC(C)(C)C)CCN4)CC3)nc2-c2ccc(F)cc2)n1 (stereo not drawn) [Example 552]
> 1 | COc1ccc(Br)c(C(=O)N2CCN(Cc3nc(-c4ccc(F)cc4)c(-c4nc(C(=O)NC(C)C)cs4)o3)CC2)c1 [Example 553]
> 1 | CC(C)NC(=O)c1csc(-c2oc(CN3CCN(C(=O)C4CC(O)CN4C(=O)OC(C)(C)C)CC3)nc2-c2ccc(F)cc2)n1 (stereo not drawn) [Example 554]
> 1 | CC(C)NC(=O)c1csc(-c2oc(CN3CCN(C(=O)C(C(C)C)N(C)C(=O)OC(C)(C)C)CC3)nc2-c2ccc(F)cc2)n1 (stereo not drawn) [Example 555]
> 1 | CC(C)NC(=O)c1csc(-c2oc(CN3CCN(C(=O)c4ccc(C(F)(F)F)cc4[N+](=O)[O-])CC3)nc2-c2ccc(F)cc2)n1 [Example 556]
> 1 | CC(C)NC(=O)c1csc(-c2oc(CN3CCN(C(=O)c4cc(Br)ccc4Cl)CC3)nc2-c2ccc(F)cc2)n1 [Example 557]
> 1 | CC(C)NC(=O)c1csc(-c2oc(CN3CCN(C(=O)c4ccc(Cl)c(Br)c4)CC3)nc2-c2ccc(F)cc2)n1 [Example 558]
> 1 | CC(C)NC(=O)c1csc(-c2oc(CN3CCN(C(=O)c4ccccc4C(=O)c4ccc(O)cc4)CC3)nc2-c2ccc(F)cc2)n1 [Example 559]
> 1 | CC(C)NC(=O)c1csc(-c2oc(CN3CCN(C(=O)c4ccccc4C(=O)c4ccc(F)cc4)CC3)nc2-c2ccc(F)cc2)n1 [Example 560]
> 1 | CC(C)NC(=O)c1csc(-c2oc(CN3CCN(C(=O)C(C)c4ccc(-c5ccccc5)c(F)c4)CC3)nc2-c2ccc(F)cc2)n1 (stereo not drawn) [Example 561]
> 1 | CC(C)NC(=O)c1csc(-c2oc(CN3CCN(C(=O)C4CCCN4C(=O)OCc4ccccc4)CC3)nc2-c2ccc(F)cc2)n1 (stereo not drawn) [Example 564]
> 1 | CCC(C)C(NC(=O)OC(C)(C)C)C(=O)N1CCN(Cc2nc(-c3ccc(F)cc3)c(-c3nc(C(=O)NC(C)C)cs3)o2)CC1 (stereo not drawn) [Example 565]
> 1 | CC(C)CC(NC(=O)OC(C)(C)C)C(=O)N1CCN(Cc2nc(-c3ccc(F)cc3)c(-c3nc(C(=O)NC(C)C)cs3)o2)CC1 (stereo not drawn) [Example 566]
> 1 | CC(C)NC(=O)c1csc(-c2oc(CN3CCN(C(=O)C(C)c4cccc(C(=O)c5ccccc5)c4)CC3)nc2-c2ccc(F)cc2)n1 (stereo not drawn) [Example 567]
> 1 | CC(C)NC(=O)c1csc(-c2oc(CN3CCN(C(=O)C(Cc4ccccc4)NC(=O)OC(C)(C)C)CC3)nc2-c2ccc(F)cc2)n1 (stereo not drawn) [Example 568]
> 1 | CC(C)NC(=O)c1csc(-c2oc(CN3CCN(C(=O)C(Cc4ccccn4)NC(=O)OC(C)(C)C)CC3)nc2-c2ccc(F)cc2)n1 (stereo not drawn) [Example 569]
> 1 | CC(C)NC(=O)c1csc(-c2oc(CN3CCN(C(=O)C4Cc5ccccc5CN4C(=O)OC(C)(C)C)CC3)nc2-c2ccc(F)cc2)n1 (stereo not drawn) [Example 570]
≤ 1 | CC(C)NC(=O)c1csc(-c2oc(CN3CCN(C(=O)C(Cc4ccc(O)cc4)NC(=O)OC(C)(C)C)CC3)nc2-c2ccc(F)cc2)n1 (stereo not drawn) [Example 571]
> 1 | CC(C)NC(=O)c1csc(-c2oc(CN3CCNCC3)nc2-c2ccc(F)cc2)n1 [Example 572]
> 1 | CC(=O)NCc1onc(-c2ccc(F)cc2)c1-c1nc(C(=O)NC(C)C)cs1 [Example 573]
> 1 | CC(C)NC(=O)c1csc(-c2c(-c3ccc(F)cc3)noc2CNC(=O)C=O)n1 [Example 574]
